Details: a range is the spread between reports

SMILES	melting point
COc1ccc(-c2cc(=O)c3c(O)c(OC)c(O)cc3o2)cc1	221 to 225 °C
OCc1ccccc1Br	80 to 81 °C
CC(=O)N1CCOCC1	10 to 14.5 °C
CCCCC1CCCCC1	-78 to -74.7 °C
COc1ccc2nc(N)sc2c1	163 to 166 °C
O=Cc1ccc(I)cc1	77 to 78 °C
COc1cccc(C(N)=O)c1	133 to 134 °C
Nc1cccc2cccc(N)c12	63 to 66.5 °C
C=CCCC	-165 to -162 °C
CC(C)CCCC(C)C	-103 °C
O=C(O)CC(S)C(=O)O (configuration not stated)	149 to 152 °C
CCC(=O)c1cc(O)ccc1O	96.5 to 98 °C
Nc1ccc(F)c(Cl)c1	45.5 to 46 °C
COC(=O)c1cccc(O)c1	71 to 74 °C
COC1=CC(=O)C=C(OC)C1=O	253 to 256 °C
COP(=O)(OC)OC(=CCl)c1cc(Cl)c(Cl)cc1Cl	96 to 97.5 °C
Cn1c(=O)n(C)c(=O)n(C)c1=O	176 °C
Oc1ccccc1I	38.5 to 43 °C
NCCCCN	27 to 27.5 °C
CCCCCCCCCCCCCCCCCCCCCCCCCC	56.4 to 57 °C
Oc1ccccn1	107 to 108 °C
CCOc1ccc(N)cc1	2.4 to 4 °C
CCBr	-119 °C
Clc1nc(Cl)c(Cl)c(Cl)c1Cl	125 to 126 °C

SMILES	melting point
CC(=O)c1ccc(O)c(O)c1O	171 to 173 °C
NC(=O)CI	93.5 to 94.5 °C
CCOC(=O)c1csc(C)n1	55 to 57 °C
C=CC(N)=O	84 to 84.5 °C
NS(=O)(=O)Cc1noc2ccccc12	162 °C
O=Cc1cc(Cl)ccc1O	100 to 101 °C
CCOC(C)=O	-84 to -83.6 °C
CC(C)(C)c1cccc(C(C)(C)C)c1O	36.5 to 39 °C
Cc1ccc(C)o1	-62.8 to -62 °C
CCOC(N)=O	48 to 49 °C
CC1(O)CCCC1	36 to 37 °C
CC(=O)CC(=O)c1ccccc1	56 to 59 °C
OCc1ccccc1-c1ccccc1	49 to 50 °C
O=C(Oc1cccc(O)c1)c1ccccc1	132 to 134 °C
O=Cc1c(Cl)cccc1Cl	70.5 to 71.5 °C
CCC(=O)c1ccc(Br)cc1	46 to 48 °C
Cc1ccccc1O	29.8 to 33 °C
COc1ccccc1[N+](=O)[O-]	9.4 to 10.5 °C
c1ccc2c(c1)ccc1ccccc12	99 to 101 °C
O=[N+]([O-])c1cc(S(=O)(=O)c2ccc(F)c([N+](=O)[O-])c2)ccc1F	194 °C
Cc1ccc(Cl)cc1N	23 to 26 °C
Nc1ccccn1	57.5 to 58 °C
Cc1cc(C2(c3cc(C)c(O)c(Br)c3)OS(=O)(=O)c3ccccc32)cc(Br)c1O	241 to 242 °C
O=C(O)c1cccc(O)c1O	204 to 206 °C

SMILES	melting point
CC(=O)Nc1cccc(O)c1	146 to 148 °C
NC(=O)c1ccccc1Br	160 to 161 °C
Cc1ccc(-c2ccc(C)cc2)cc1	120 to 121 °C
CC(C)c1ncc([N+](=O)[O-])n1C	60 to 61 °C
Cc1cc(C)cc(N)c1	9.8 to 10 °C
Cc1cc(C)cc([N+](=O)[O-])c1	71 to 75 °C
Clc1ccccc1Cl	-18 to -16.7 °C
CC(C)[N+](=O)[O-]	-93 to -91.3 °C
CCCC(=O)OCCC(C)C	-73.2 to -73 °C
COS(=O)(=O)OC	-32 to -27 °C
CCCCCCCCCCCCCCBr	5 to 5.6 °C
N#Cc1c(F)cccc1F	30 to 31 °C
CCCCCCCCOc1ccc(C(=O)c2ccccc2)c(O)c1	48 to 48.5 °C
C1CCOC1	-108 °C
Cc1cc(C)c(C)c(CCl)c1C	69.5 to 70.5 °C
NCCCN1CCN(CCCN)CC1	14 to 15 °C
COc1cc(Cl)ccc1C(=O)O	146 to 147 °C
Cc1ccc(CN)cc1	12 to 12.5 °C
CC(=O)Nc1ccc(N)cc1	163 to 166 °C
O=C(O)CCCc1ccccc1	48 to 52 °C
Cc1cc(C)c(C)c(C)c1	-24 to -23.7 °C
c1ccc2c(c1)Sc1ccccc1S2	159 °C
Cc1ccc(C(=O)O)c(O)c1	177 to 178 °C
CCCCC(N)=O	103 to 106 °C

SMILES	melting point
Cc1ccc([N+](=O)[O-])c(C)c1	6 to 9 °C
CC#CCO	-2.2 to -2 °C
CCCC(=O)O	-8 to -5 °C
CC(CCC(=O)O)C1CCC2C3C(O)CC4CC(O)CCC4(C)C3CC(O)C12C (configuration not stated)	198 to 201 °C
CNC(=O)c1ccccc1	79 to 82 °C
Cc1cc(C)nc(C)c1	-46 to -43 °C
Cc1ccc([N+](=O)[O-])cc1Br	76 to 78 °C
COc1cc(OC)c2ccc(=O)oc2c1	148 to 149 °C
O=C(O)c1cc(F)cc(F)c1	121 to 122 °C
Brc1cnc2ccccc2c1	13.3 to 14 °C
Nc1ccc2cc3ccccc3cc2c1	235 to 239 °C
c1ccc(OCC2CO2)cc1 (configuration not stated)	3.5 to 4 °C
CC1CCC(C)C1C (configuration not stated)	-116 to -112 °C
FC(F)(F)c1ccccc1Cl	-7.4 to -6 °C
O=[N+]([O-])c1ccc(CO)cc1	94 to 96.5 °C
C=CCC	-185 °C
Oc1cccc2cccnc12	74 to 76 °C
CCc1ccc(C)cc1C	-63 to -62.9 °C
CC12CCC(C(Br)C1=O)C2(C)C (configuration not stated)	76 to 77 °C
c1ccc2c(c1)c1ccccc1c1ccccc21	196 to 199 °C
O=c1[nH]c(=O)n(C2CC(O)C(CO)O2)cc1F (configuration not stated)	150 °C
BrCCCCCCCCCCCCBr	40 to 41 °C
CC(C)C#N	-72 to -71.5 °C
COP(=O)(NC(C)=O)SC (configuration not stated)	88 to 89 °C

SMILES	melting point
c1ccc(CCc2ccccc2)cc1	51 to 55 °C
CCCCCCCCC#CCCCCCCCC(=O)O	45 to 48 °C
Cc1c(Br)cc(Br)c(O)c1Br	82 to 84 °C
Cc1cc(Br)ccc1O	64 to 64.7 °C
CCC(C)=C(C)C	-118 °C
Cc1c2ccccc2cc2ccccc12	78 to 81.5 °C
O=C1CCCCC1c1ccccc1 (configuration not stated)	57 to 58 °C
Cc1cccc(-c2ccccc2)c1	4.5 to 5 °C
CCCCCCCCCl	-58 to -57.8 °C
Brc1cc(Br)c(Br)s1	27 to 29 °C
O=C(O)c1ccc(Cl)c([N+](=O)[O-])c1	182 to 183 °C
Cc1ccc(S(=O)(=O)F)cc1	41 to 41.5 °C
COc1cc(C=CC(=O)c2ccccc2O)ccc1O	126 to 129 °C
COc1cc(C(C)=O)ccc1O	114 to 115 °C
O=S(=O)(c1ccccc1)c1ccccc1	128 °C
O=S=O	-73 to -72 °C
CC(C)(Cl)Cl	-34 to -33.8 °C
O=P(O)(Oc1ccccc1)Oc1ccccc1	66 to 67.5 °C
Nc1cc(Cl)c(O)c(Cl)c1	167 to 168 °C
O=C(O)Cc1ccc(Cl)cc1	103 to 106 °C
Brc1ccc(Br)c2ccccc12	81 to 83 °C
N#CCCc1ccccc1	-2 to -1 °C
Cc1ccc(Br)cc1	25 to 28.5 °C
O=c1ccc2ccc(O)cc2o1	230 °C

SMILES	melting point
COc1ccccc1OC(=O)c1ccccc1	57.5 to 59 °C
CCCCCCCCCCc1ccccc1	-14.4 to -14 °C
O=C(CO)c1ccccc1	4.5 to 6 °C
Cc1cc(Cl)ccc1O	47 to 51 °C
O=C(O)c1ccc2c(c1)OCO2	229 to 233 °C
NNC(=O)c1ccc(Br)cc1	166 to 168 °C
CC(N)=S	112 to 116 °C
COc1cccc(C(C)=O)c1	-8 to -7 °C
CC1(C)OC(=O)CC(=O)O1	94 to 98 °C
O=C(CCl)c1ccc(Cl)cc1	101 to 102 °C
OC1CCCCCCCCCCC1	76 to 78 °C
c1ccc2c(c1)OCCOCCOc1ccccc1OCCOCCO2	162 to 163 °C
ON=C1CCCCC1	89 to 90 °C
O=C(O)Cc1ccc(O)c(O)c1	128 to 129 °C
S=C=Nc1cccc2ccccc12	56 to 58 °C
c1cnc2c(c1)ccc1cccnc12	117 to 118 °C
CC1CC=CCC1 (configuration not stated)	-116 to -115 °C
COC(=O)c1ccc(Cl)c([N+](=O)[O-])c1	80 to 83 °C
Cc1ccc2cccc(O)c2n1	72 to 73.8 °C
O=C1OC(=O)C2C1C1(Cl)C(Cl)=C(Cl)C2(Cl)C1(Cl)Cl (configuration not stated)	233 to 237 °C
COc1ccc(C=O)cc1OC	43 to 44 °C
COc1ccc(OC)c(C=O)c1	49 to 52 °C
O=C(Cl)c1ccc(C(=O)Cl)cc1	81 to 83.5 °C
Oc1cccc(F)c1	10 to 13.7 °C

SMILES	melting point
O=C(O)c1ccc2ccccc2n1	156 to 158 °C
FC(F)(F)c1ccccc1	-29.1 to -27 °C
C[N+](=O)[O-]	-29 to -28.5 °C
O=C(CC(=O)C(F)(F)F)c1cccs1	42 to 43 °C
CCCCCCCCCC(C)O (configuration not stated)	0 to 2 °C
Nc1cc(Br)ccc1Br	51 to 54 °C
Nc1ccc(F)cc1F	-8 to -7.5 °C
CC1(C)CCCC1	-70 to -69.8 °C
CCCCCc1ccc(O)cc1	23 to 24 °C
O=C(Cl)CCCCCCCCC(=O)Cl	-5 to -2.5 °C
O=C(c1ccccc1)c1ccc(O)cc1O	144 to 146 °C
CCCCCCC=CCCCCCCCC(=O)O	-0.1 to 0.5 °C
CC(=O)c1cccc(C(C)=O)c1	32 to 36 °C
COc1cc(C)ccc1O	5.5 to 6 °C
O=C(O)c1cc(Cl)c(O)c(Cl)c1	265 to 268 °C
COc1cccc(C#N)c1OC	44.5 to 46 °C
Nc1c(Cl)cc([N+](=O)[O-])cc1[N+](=O)[O-]	154 to 157 °C
Cc1c(C)c(C)c(CCl)c(C)c1C	82 to 83 °C
COC(=O)C1C2CC3c4[nH]c5cc(OC)ccc5c4CCN3CC2CC(OC(=O)c2cc(OC)c(OC)c(OC)c2)C1OC (configuration not stated)	264 to 265 °C
COC(=O)c1cc(OC)c(OC)c(OC)c1	83 to 85 °C
O=C=Nc1ccc([N+](=O)[O-])cc1	57 to 58 °C
COC(=O)c1ccc(I)cc1	115 °C
CCCCCCCCCCCCCCCCCCO	58 to 61 °C

— a melting point compilation (Tetko et al.)
